In patent US20240300932A1, “N-PHENYLIMINE DERIVATIVE AND PREPARATION METHOD AND USE THEREOF” (Guizhou University, priority 2023, published 2024):

Key:
Assay in all cases: Post-emergence herbicidal activity test (stem and leaf spray, pot culture)
Type in all cases: in vivo
Conditions in all cases: 3 weeks after spraying
Abutilon theophrasti = test system: Abutilon theophrasti
How it was run: (§1)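 Pot-grown weeds in loam (pH 7, 1.63% organic matter) were spray-treated on stems and leaves at the 2- to 3-leaf stage with compound in acetone/Tween 80 plus 1.5 liters/ha methyl oleate at 10, 5 or 2.5 g/mu. Fresh-weight growth control was scored 3 weeks later as grades 0–5.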

Amaranthus retroflexus = test system: Amaranthus retroflexus
How it was run: as §1

Echinochloa crusgalli = test system: Echinochloa crusgalli
How it was run: as §1

Portulaca oleracea = test system: Portulaca oleracea
How it was run: as §1

Setaria viridis = test system: Setaria viridis
How it was run: as §1

Trifoliumre pensL. = test system: Trifoliumre pensL.
How it was run: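 Pot-grown weeds in loam (pH 7), greenhouse at 20–30 °C, sprayed once post-emergence at the 2–3-leaf stage. Compound in acetone with Tween 80 plus methyl oleate oil (1.5 L/ha), applied at 10, 5 and 2.5 g/mu by spray tower. Effect scored 3 weeks after spraying, averaged over three repeats.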

| Structure (SMILES) | Post-emergence herbicidal activity, A. theophrasti (grade) (Abutilon theophrasti; dosage 2.5 g/mu) | Post-emergence herbicidal activity, A. theophrasti (grade) (Abutilon theophrasti; dosage 5 g/mu) | Post-emergence herbicidal activity, A. theophrasti (grade) (Abutilon theophrasti; dosage 10 g/mu) | Post-emergence herbicidal activity, A. retroflexus (grade) (Amaranthus retroflexus; dosage 2.5 g/mu) | Post-emergence herbicidal activity, A. retroflexus (grade) (Amaranthus retroflexus; dosage 5 g/mu) | Post-emergence herbicidal activity, A. retroflexus (grade) (Amaranthus retroflexus; dosage 10 g/mu) | Post-emergence herbicidal activity, E. crusgalli (grade) (Echinochloa crusgalli; dosage 2.5 g/mu) | Post-emergence herbicidal activity, E. crusgalli (grade) (Echinochloa crusgalli; dosage 5 g/mu) | Post-emergence herbicidal activity, E. crusgalli (grade) (Echinochloa crusgalli; dosage 10 g/mu) | Post-emergence herbicidal activity, P. oleracea (grade) (Portulaca oleracea; dosage 2.5 g/mu) | Post-emergence herbicidal activity, P. oleracea (grade) (Portulaca oleracea; dosage 5 g/mu) | Post-emergence herbicidal activity, P. oleracea (grade) (Portulaca oleracea; dosage 10 g/mu) | Post-emergence herbicidal activity, S. viridis (grade) (Setaria viridis; dosage 2.5 g/mu) | Post-emergence herbicidal activity, S. viridis (grade) (Setaria viridis; dosage 5 g/mu) | Post-emergence herbicidal activity, S. viridis (grade) (Setaria viridis; dosage 10 g/mu) | Post-emergence herbicidal activity, Trifoliumre pensL. (grade) (Trifoliumre pensL.; dosage 2.5 g/mu) | Post-emergence herbicidal activity, Trifoliumre pensL. (grade) (Trifoliumre pensL.; dosage 5 g/mu) | Post-emergence herbicidal activity, Trifoliumre pensL. (grade) (Trifoliumre pensL.; dosage 10 g/mu) |
| --- | --- | --- | --- | --- | --- | --- | --- | --- | --- | --- | --- | --- | --- | --- | --- | --- | --- | --- |
| O=C1C2=C(CCCC2)C(=O)N1c1cc(OCc2nc(-c3ccc(Br)cc3Br)no2)c(Cl)cc1F [Compound A11] | 5 (Grade 5: the growth control rate is greater than or equal to 85%) | 5 (Grade 5: the growth control rate is greater than or equal to 85%) | 5 (Grade 5: the growth control rate is greater than or equal to 85%) | 5 (Grade 5: the growth control rate is greater than or equal to 85%) | 5 (Grade 5: the growth control rate is greater than or equal to 85%) | 5 (Grade 5: the growth control rate is greater than or equal to 85%) | 1 (Grade 1: the growth control rate is greater than or equal to 5% and less than 20%) | 2 (Grade 2: the growth control rate is greater than or equal to 20% and less than 40%) | 3 (Grade 3: the growth control rate is greater than or equal to 40% and less than 60%) | 4 (Grade 4: the growth control rate is greater than or equal to 60% and less than 85%) | 5 (Grade 5: the growth control rate is greater than or equal to 85%) | 5 (Grade 5: the growth control rate is greater than or equal to 85%) | 2 (Grade 2: the growth control rate is greater than or equal to 20% and less than 40%) | 3 (Grade 3: the growth control rate is greater than or equal to 40% and less than 60%) | 4 (Grade 4: the growth control rate is greater than or equal to 60% and less than 85%) | 4 (Grade 4: the growth control rate is greater than or equal to 60% and less than 85%) | 5 (Grade 5: the growth control rate is greater than or equal to 85%) | 5 (Grade 5: the growth control rate is greater than or equal to 85%) |
| O=C1C2=C(CCCC2)C(=O)N1c1cc(OCc2nc(-c3ccccc3F)no2)c(Cl)cc1F [Compound A12] | 5 (Grade 5: the growth control rate is greater than or equal to 85%) | 5 (Grade 5: the growth control rate is greater than or equal to 85%) | 5 (Grade 5: the growth control rate is greater than or equal to 85%) | 5 (Grade 5: the growth control rate is greater than or equal to 85%) | 5 (Grade 5: the growth control rate is greater than or equal to 85%) | 5 (Grade 5: the growth control rate is greater than or equal to 85%) | 1 (Grade 1: the growth control rate is greater than or equal to 5% and less than 20%) | 2 (Grade 2: the growth control rate is greater than or equal to 20% and less than 40%) | 3 (Grade 3: the growth control rate is greater than or equal to 40% and less than 60%) | 4 (Grade 4: the growth control rate is greater than or equal to 60% and less than 85%) | 5 (Grade 5: the growth control rate is greater than or equal to 85%) | 5 (Grade 5: the growth control rate is greater than or equal to 85%) | 2 (Grade 2: the growth control rate is greater than or equal to 20% and less than 40%) | 3 (Grade 3: the growth control rate is greater than or equal to 40% and less than 60%) | 4 (Grade 4: the growth control rate is greater than or equal to 60% and less than 85%) | 4 (Grade 4: the growth control rate is greater than or equal to 60% and less than 85%) | 5 (Grade 5: the growth control rate is greater than or equal to 85%) | 5 (Grade 5: the growth control rate is greater than or equal to 85%) |
| O=C1C2=C(CCCC2)C(=O)N1c1ccc(Cl)c(OCc2nc(-c3cc(F)cc(Br)c3)no2)c1F [Compound A13, 2-(3-(3-(3-(3-bromo-5-fluorophenyl)-1,2,4-oxadiazole-5-yl)methoxy)-4-chloro-2-fluorophenyl)-4,5,6,7-tetrahydro-1H-isoindole-1,3(2H)-dione] | 5 (Grade 5: the growth control rate is greater than or equal to 85%) | 5 (Grade 5: the growth control rate is greater than or equal to 85%) | 5 (Grade 5: the growth control rate is greater than or equal to 85%) | 5 (Grade 5: the growth control rate is greater than or equal to 85%) | 5 (Grade 5: the growth control rate is greater than or equal to 85%) | 5 (Grade 5: the growth control rate is greater than or equal to 85%) | 1 (Grade 1: the growth control rate is greater than or equal to 5% and less than 20%) | 2 (Grade 2: the growth control rate is greater than or equal to 20% and less than 40%) | 3 (Grade 3: the growth control rate is greater than or equal to 40% and less than 60%) | 4 (Grade 4: the growth control rate is greater than or equal to 60% and less than 85%) | 5 (Grade 5: the growth control rate is greater than or equal to 85%) | 5 (Grade 5: the growth control rate is greater than or equal to 85%) | 2 (Grade 2: the growth control rate is greater than or equal to 20% and less than 40%) | 3 (Grade 3: the growth control rate is greater than or equal to 40% and less than 60%) | 4 (Grade 4: the growth control rate is greater than or equal to 60% and less than 85%) | 4 (Grade 4: the growth control rate is greater than or equal to 60% and less than 85%) | 5 (Grade 5: the growth control rate is greater than or equal to 85%) | 5 (Grade 5: the growth control rate is greater than or equal to 85%) |
| O=C1C2=C(CCCC2)C(=O)N1c1cc(OCc2nc(-c3ccc(F)c(F)c3)no2)c(Cl)cc1F [Compound A14] | 5 (Grade 5: the growth control rate is greater than or equal to 85%) | 5 (Grade 5: the growth control rate is greater than or equal to 85%) | 5 (Grade 5: the growth control rate is greater than or equal to 85%) | 5 (Grade 5: the growth control rate is greater than or equal to 85%) | 5 (Grade 5: the growth control rate is greater than or equal to 85%) | 5 (Grade 5: the growth control rate is greater than or equal to 85%) | 1 (Grade 1: the growth control rate is greater than or equal to 5% and less than 20%) | 2 (Grade 2: the growth control rate is greater than or equal to 20% and less than 40%) | 3 (Grade 3: the growth control rate is greater than or equal to 40% and less than 60%) | 4 (Grade 4: the growth control rate is greater than or equal to 60% and less than 85%) | 5 (Grade 5: the growth control rate is greater than or equal to 85%) | 5 (Grade 5: the growth control rate is greater than or equal to 85%) | 2 (Grade 2: the growth control rate is greater than or equal to 20% and less than 40%) | 3 (Grade 3: the growth control rate is greater than or equal to 40% and less than 60%) | 4 (Grade 4: the growth control rate is greater than or equal to 60% and less than 85%) | 4 (Grade 4: the growth control rate is greater than or equal to 60% and less than 85%) | 5 (Grade 5: the growth control rate is greater than or equal to 85%) | 5 (Grade 5: the growth control rate is greater than or equal to 85%) |
